Data reported in US20150119395A1, “NOVEL TRIAZOLE COMPOUNDS THAT MODULATE HSP90 ACTIVITY” (SYNTA PHARMACEUTICALS CORP., priority 2012, published 2015).

Test system: Her2
Assay: Degradation of Her2 in BT-474 cells, SDS-PAGE/immunoblot, Method 1
Assay type: cell-based, human
Conditions: 0.5 μM, overnight in DMEM medium
Experimental: BT-474 cells were treated with 0.5 μM, 2 μM, or 5 μM of 17AAG (a positive control) or 0.5 μM, 2 μM, or 5 μM of a compound of the invention overnight in DMEM medium. After treatment, each cytoplasmic sample was prepared from 1×10^6 cells by incubation of cell lysis buffer (#9803, Cell Signaling Technology) on ice for 10 minutes. The resulting supernatant used as the cytosol fractions was dissolved with sample buffer for SDS-PAGE and run on a SDS-PAGE gel, blotted onto a nitrocellulose membrane by using semi-dry transfer. Non-specific binding to nitrocellulose is blocked with 5% skim milk in TBS with 0.5% Tween at room temperature for 1 hour, then probed with anti-Her2/ErB2 mAb (rabbit IgG, #2242, Cell Signaling) and anti-Tubulin (T9026, Sigma) as housekeeping control protein. HRP-conjugated goat anti-rabbit IgG (H+L) and HRP-conjugated horse anti-mouse IgG (H+L) were used as secondary Ab (#7074, #7076, Cell Signaling) and LumiGLO reagent, 20× Peroxide (#7003, Cell Signaling) is used for visualization.
BT-474 cells were treated with 0.5 μM, 2 μM, or 5 μM of 17AAG (a positive control) or 0.5 μM, 2 μM, or 5 μM of a compound of the invention overnight in DMEM medium. After treatment, each cytoplasmic sample was prepared from 1×10^6 cells by incubation of cell lysis buffer (#9803, Cell Signaling Technology) on ice for 10 minutes. […]

## C=CCNC1=C2C[C@@H](C)C[C@H](OC)[C@H](O)[C@@H](C)/C=C(\C)[C@H](OC(N)=O)[C@@H](OC)/C=C\C=C(/C)C(=O)NC(=CC1=O)C2=O [Compound 17AAG, 17-allylamino-17-demethoxygeldanamycin]
  Degradation of Her2 (Western blot): partial degradation
